# Source: paper PMC11602988 (The Journal of Biological Chemistry, 2024)
# T1: OCT1 Phe244Ala variant (Homo sapiens, UniProt O15245, F244A)
# T1 sequence (O15245 1-554 F244A): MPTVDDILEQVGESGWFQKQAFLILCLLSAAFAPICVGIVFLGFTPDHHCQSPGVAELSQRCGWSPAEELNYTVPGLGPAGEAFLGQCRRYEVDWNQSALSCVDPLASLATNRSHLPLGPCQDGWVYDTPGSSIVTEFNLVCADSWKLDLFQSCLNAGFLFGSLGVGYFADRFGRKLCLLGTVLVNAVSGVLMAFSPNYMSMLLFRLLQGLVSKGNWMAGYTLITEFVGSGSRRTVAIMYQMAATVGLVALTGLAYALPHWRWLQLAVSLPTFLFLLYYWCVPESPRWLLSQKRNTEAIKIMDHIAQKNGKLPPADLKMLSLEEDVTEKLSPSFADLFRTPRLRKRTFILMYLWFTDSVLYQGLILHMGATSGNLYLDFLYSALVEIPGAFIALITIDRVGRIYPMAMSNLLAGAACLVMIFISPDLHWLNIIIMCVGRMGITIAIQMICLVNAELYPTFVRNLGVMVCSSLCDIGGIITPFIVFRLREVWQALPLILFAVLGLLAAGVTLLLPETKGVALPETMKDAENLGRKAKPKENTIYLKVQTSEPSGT
# T2: OCT1 WT (Homo sapiens, UniProt O15245)
# T2 sequence (O15245 1-554): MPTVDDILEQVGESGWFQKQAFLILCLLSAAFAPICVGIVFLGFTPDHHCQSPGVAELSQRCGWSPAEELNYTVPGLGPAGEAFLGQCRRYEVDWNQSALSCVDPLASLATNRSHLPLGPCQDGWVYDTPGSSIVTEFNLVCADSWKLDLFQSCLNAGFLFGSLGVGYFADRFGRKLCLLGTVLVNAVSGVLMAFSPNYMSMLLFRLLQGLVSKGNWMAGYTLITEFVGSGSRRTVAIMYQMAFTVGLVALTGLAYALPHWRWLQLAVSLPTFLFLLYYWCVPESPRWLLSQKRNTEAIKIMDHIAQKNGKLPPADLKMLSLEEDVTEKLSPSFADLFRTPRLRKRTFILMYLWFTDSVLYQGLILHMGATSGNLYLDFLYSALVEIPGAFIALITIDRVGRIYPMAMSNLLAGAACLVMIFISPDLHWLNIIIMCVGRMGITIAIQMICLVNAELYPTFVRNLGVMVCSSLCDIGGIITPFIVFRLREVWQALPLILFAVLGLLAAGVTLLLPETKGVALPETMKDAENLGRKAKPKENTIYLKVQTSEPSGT
# Assays:
# OCT1 Phe244Ala variant [1] = molecular target: T1, OCT1 Phe244Ala variant; test: Concentration-dependent uptake kinetics, HEK293 cells overexpressing OCT1 Phe244Ala; conditions: for Clint: ratio of vmax over Km;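 as to all read-outs here: cells exposed to rising substrate concentrations in buffer, intracellular drug measured by HPLC-tandem mass spectrometry, quantified against a standard curve, uptake referenced to empty vector-transfected HEK293 controls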
# Procedure: (§1) All experiments were carried out using transporter-overexpressing HEK293 cells. […] Cells were cultivated in Dulbecco’s Modified Eagle’s medium supplemented with 10% fetal calf serum, 100 U/ml penicillin, and 100 μg/ml streptomycin. Cells were passaged twice a week and kept in culture for no longer than 30 passages.
# (§2) For uptake studies, 300,000 HEK293 cells were plated in each well of 24-well plates precoated with poly-D-lysine 48 prior to the experiment. On the day of the experiment, cells were washed once with prewarmed to 37 °C HBSS+ (Hank’s balanced salt solution supplemented with 10 mM Hepes, both Sigma-Aldrich). […] Uptake was stopped by adding ice-cold HBSS+ and cells were washed twice with ice-cold buffer before cell lysis was done using 80% acetonitrile containing an appropriate internal standard for eventual mass spectrometry. Relative quantification was done by comparison of transporter-overexpressing cells to empty vector–transfected controls. For uptake kinetic experiments, cells were incubated with increasing concentrations of substrate dissolved in HBSS+. Absolute quantification was done later by comparison to a standard curve in lysis buffer with known concentration.
# (§3) Intracellular drug concentrations were detected and quantified by HPLC coupled to mass spectrometry. […] Substance-specific conditions were used to adjust the retention times of the analytes.
# (§4) Transport ratios were determined as relative fold-increase of the uptake in transporter-overexpressing cells over empty vector–transfected control cells. For transport kinetic experiments, absolute substrate quantification was done by signal comparison to a standard curve with known concentrations. Net uptake was then determined by subtracting the uptake into empty vector–transfected cells from transporter-overexpressing cells. […] Vmax defines the maximum transport velocity, Km refers to the substrate concentration required to reach half vmax. The intrinsic clearance Clint is the ratio of vmax over Km.
# OCT1 WT [2] = molecular target: T2, OCT1 WT; test: Uptake screening (transport ratio over empty vector), HEK293 cells overexpressing OCT1 WT; type: cell-based; parameters: expressed in transfected cells;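 also: intracellular substrate levels quantified by HPLC–tandem mass spectrometry after uptake in HBSS+ buffer at 37 °C, stable Flp-In HEK293 lines, fold change versus empty vector–transfected cells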
# Procedure: as §1, §2, §3, §4
# OCT1 WT [3] = molecular target: T2, OCT1 WT; test: Concentration-dependent uptake kinetics, HEK293 cells overexpressing OCT1 WT; conditions: for Clint: ratio of vmax over Km
# Procedure: as §1, §2, §3, §4
# OCT1 Phe244Ala variant [4] = molecular target: T1, OCT1 Phe244Ala variant; conditions: cited from earlier work
# OCT1 Phe244Ala variant [5] = molecular target: T1, OCT1 Phe244Ala variant; test: Uptake screening (transport ratio over empty vector), HEK293 cells overexpressing OCT1 Phe244Ala variant; type: cell-based; parameters: expressed in transfected cells; conditions: for relative_Phe244Ala_uptake_in%: Phe244Ala uptake relative to OCT1 WT;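 as to all read-outs here: stably transfected HEK293 cells, intracellular substrate quantified by HPLC-tandem mass spectrometry in cell lysates, uptake in HBSS+ buffer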
# Procedure: as §1, §2, §3, §4
# OCT1 Phe244Ala variant [6] = molecular target: T1, OCT1 Phe244Ala variant; test: Inhibition of (R,S)-ethambutol uptake, HEK293 cells overexpressing OCT1 Phe244Ala; conditions: 20 μM inhibitor, 2 μM (R,S)-ethambutol, 5 min
# Procedure: (§5) For cellular inhibition experiments, 300,000 HEK293 cells were plated in poly-D-lysine precoated 24 well plates 48 h in advance. To study transporter inhibition, cells were incubated with 2 μM (R,S)-ethambutol with and without 20 μM inhibitor both dissolved in HBSS+.
# (§6) In inhibition experiments, transporter activity was calculated as it follows: %OCT1activity=[Substrateinhibited]−[SubstrateEV]/[Substratenon−inhibited]−[SubstrateEV]
# (§7) Substrateinhibited is the uptake of ethambutol into transporter-overexpressing cells in presence of an inhibitor, whereas substratenon-inhibited refers to the ethambutol uptake without coincubation with an inhibitor. SubstrateEV refers to the ethambutol uptake into empty vector–transfected control cells. Percent inhibition values where then calculated as in the following: %transporterinhibition=100%−transporteractivity In concentration-dependent inhibition experiments, the transporter activity was plotted against the log10 of inhibitor concentrations. The data was then analyzed by the following formula to determine IC50 values: Y=Ymin+(Ymax−Ymin)/1+10^log10(IC50−x)∙hillslope
# (§8) Y describes the transporter activity, whereas Ymax is to the maximum and Ymin to the minimal transporter activity. X refers to the log10 of inhibitor concentrations, IC50 characterizes the half-maximal inhibitory concentration, and hill slope describes the slope factor.
# OCT1 Phe244Ala variant [7] = molecular target: T1, OCT1 Phe244Ala variant; test: cell-based
# Procedure: as §5, §6, §7, §8
# OCT1 WT [8] = molecular target: T2, OCT1 WT; test: cell-based
# Procedure: as §5, §6, §7, §8
# OCT1 Phe244Ala variant [9] = molecular target: T1, OCT1 Phe244Ala variant; test: Stereoselective cell uptake of racemic substrates (chiral LC-MS/MS), OCT1 Phe244Ala variant; conditions: 2.5 μM racemic substance, 2 min
# Procedure: (§9) Intracellular concentrations were quantified after chiral chromatography by mass spectrometry and are presented as mean ± SD of three independent experiments. […] Whenever the absolute steric conformation of the enantiomers was unknown, the enantiomers were termed according to their elution as enantiomer-1 (E1) and enantiomer-2 (E2).
# as §2
# Chromatography was carried out with in reversed-phase mode with an aqueous mobile phase buffered with ammonium acetate and supplemented with 2-propanol or methanol as organic modifiers (Table S2). Order of elution of enantiomers was obtained either by reference literature ([28], [29], [30], [31], [32], [33]) or by injecting single enantiomers. Whenever there was no information available, the first eluting enantiomer was referred to as E1 and the second as E2.
# as §4
# OCT1 WT [10] = molecular target: T2, OCT1 WT; test: Stereoselective cell uptake of racemic substrates (chiral LC-MS/MS), OCT1 WT; conditions: 2.5 μM racemic substance, 2 min
# Procedure: as §9
# For uptake studies, 300,000 HEK293 cells were plated in each well of 24-well plates precoated with poly-D-lysine 48 prior to the experiment. On the day of the experiment, cells were washed once with prewarmed to 37 °C HBSS+ (Hank’s balanced salt solution supplemented with 10 mM Hepes, both Sigma-Aldrich). […] Relative quantification was done by comparison of transporter-overexpressing cells to empty vector–transfected controls. […] Absolute quantification was done later by comparison to a standard curve in lysis buffer with known concentration. […]
# Transport ratios were determined as relative fold-increase of the uptake in transporter-overexpressing cells over empty vector–transfected control cells. For transport kinetic experiments, absolute substrate quantification was done by signal comparison to a standard curve with known concentrations. Net uptake was then determined by subtracting the uptake into empty vector–transfected cells from transporter-overexpressing cells. […]
# [11] = substrate: CC(C)(C)NCC(O)COc1cccc2c1CCC(=O)N2; test: cells, lysate or membranes; conditions: other: OCT1 WT, HEK293, 2 min incubation, net uptake, mean ± SD of three experiments
# [12] = substrate: CC(C)[N+](C)(CCOC(=O)C1c2ccccc2Oc2ccccc21)C(C)C; test: cells, lysate or membranes; conditions: other: OCT1 WT, HEK293, 2 min incubation, net uptake, mean ± SD of three experiments
# [13] = substrate: CN(C)CCc1c[nH]c2ccc(C[C@H]3COC(=O)N3)cc12; test: cells, lysate or membranes; conditions: other: OCT1 WT, HEK293, 2 min incubation, net uptake, mean ± SD of three experiments
# [14] = substrate: CC(=O)OC(C)C[N+](C)(C)C; test: cells, lysate or membranes; conditions: other: OCT1 WT, HEK293, 2 min incubation, net uptake, mean ± SD of three experiments
# [15] = substrate: COc1cc(CCN)cc(OC)c1OC; test: cells, lysate or membranes; conditions: other: OCT1 WT, HEK293, 2 min incubation, net uptake, mean ± SD of three experiments
# [16] = substrate: NC(N)=Nc1nc(CSCCC(N)=NS(N)(=O)=O)cs1; test: cells, lysate or membranes; conditions: other: OCT1 WT, HEK293, 2 min incubation, net uptake, mean ± SD of three experiments
# [17] = substrate: CCN1CCCC1CNC(=O)c1cc(S(N)(=O)=O)ccc1OC; test: cells, lysate or membranes; conditions: other: OCT1 WT, HEK293, 2 min incubation, net uptake, mean ± SD of three experiments
# [18] = substrate: CC(CCc1ccc(O)cc1)NCCc1ccc(O)c(O)c1; test: cells, lysate or membranes; conditions: other: OCT1 WT, HEK293, 2 min incubation, net uptake, mean ± SD of three experiments
# Procedure: as §1, §2, §3, §4
# [19] = substrate: CN1CCN(CC(=O)N2c3ccccc3C(=O)Nc3cccnc32)CC1; test: cells, lysate or membranes; conditions: other: OCT1 WT, HEK293, 2 min incubation, net uptake, mean ± SD of three experiments
# [20] = substrate: Cc1ncc(C[n+]2csc(CCO)c2C)c(N)n1; test: cells, lysate or membranes; conditions: other: OCT1 WT, HEK293, 2 min incubation, net uptake, mean ± SD of three experiments
# [21] = uptake ratio over empty vector, HEK293 cells overexpressing OCT1 WT
# [22] = uptake ratio over empty vector, HEK293 cells overexpressing OCT1 Phe244Ala
molecule,measurement,setting,value
CN(C)C(=N)N=C(N)N [Metformin],vmax,"OCT1 Phe244Ala variant [1]; OCT1 Phe244Ala, HEK293, 2 min incubation, net uptake",4361 ± 1497 pmol × mg protein^−1 × min^−1
same,Clint,OCT1 Phe244Ala variant [1]; OCT1 Phe244Ala,1.54 ± 2.02 ml × g Protein^−1 × min^−1
same,Km at 2 min,"OCT1 Phe244Ala variant [1]; human, HEK293 cells overexpressing OCT1 Phe244Ala",2830 ± 2730 µM
same,"Maximum transport capacity (vmax), Phe244Ala compared to WT","OCT1 Phe244Ala variant [1]; uptake kinetics, in words",reduced transport capacity
same,Mean_transport_ratio_WT,OCT1 WT [2]; uptake ratio of OCT1 WT-overexpressing HEK293 cells over empty vector,6.891
same,vmax,"OCT1 WT [3]; OCT1 WT, HEK293, 2 min incubation, net uptake","10,813 ± 2176 pmol × mg protein^−1 × min^−1"
same,Clint,OCT1 WT [3]; OCT1 WT,3.71 ± 2.82 ml × g Protein^−1 × min^−1
same,Km at 2 min,"OCT1 WT [3]; human, HEK293 cells overexpressing OCT1 WT",2910 ± 1630 µM
same,Consequence of the Phe244Ala substitution on transport,OCT1 Phe244Ala variant [4],complete loss of transport activity
same,Transport activity of Phe244Ala in % of WT activity,"OCT1 Phe244Ala variant [5]; 2.5 μM substrate, 2 min, Phe244Ala uptake relative to WT",~10%
same,relative_Phe244Ala_uptake_in%,OCT1 Phe244Ala variant [5],14.754%
same,Mean_transport_ratio_Phe244Ala,OCT1 Phe244Ala variant [5]; uptake ratio of OCT1 Phe244Ala-overexpressing HEK293 cells over empty vector,1.869
CN1CCN(CC(=O)N2c3ccccc3C(=O)Nc3cccnc32)CC1 [Pirenzepine],Inhibition of the Phe244Ala mutant compared to the WT transporter (screening),OCT1 Phe244Ala variant [6],more potent inhibition
same,IC50,OCT1 Phe244Ala variant [7],23.3 µM
same,Clint,OCT1 Phe244Ala variant [1]; OCT1 Phe244Ala,2.74 ± 2.15 ml × g Protein^−1 × min^−1
same,"Km, Phe244Ala compared to WT","OCT1 Phe244Ala variant [1]; uptake kinetics, in words",lower Km values
same,IC50,OCT1 WT [8],104 µM
same,Clint,OCT1 WT [3]; OCT1 WT,0.43 ± 0.85 ml × g Protein^−1 × min^−1
same,Fold increased uptake rate by Phe244Ala compared to WT,"OCT1 Phe244Ala variant [5]; 2.5 μM substrate, 2 min",8.0 fold
CCOc1ccccc1OCCN[C@H](C)Cc1ccc(OC)c(S(N)(=O)=O)c1 [Tamsulosin],Mean_transport_ratio_WT,OCT1 WT [2]; [21],3.001
same,Stereoselectivity of transport by the Phe244Ala variant,OCT1 Phe244Ala variant [9],lacked any stereoselective transport
same,Stereoselectivity of uptake via WT OCT1,OCT1 WT [10],stereoselective uptake
same,relative_Phe244Ala_uptake_in%,OCT1 Phe244Ala variant [5],40.118%
same,Mean_transport_ratio_Phe244Ala,OCT1 Phe244Ala variant [5]; [22],1.803
COc1cc(Cc2cnc(N)nc2N)cc(OC)c1OC [Trimethoprim],Inhibition of the Phe244Ala mutant compared to the WT transporter (screening),OCT1 Phe244Ala variant [6],strongly reduced inhibition
same,Mean_transport_ratio_WT,OCT1 WT [2]; [21],3.204
same,relative_Phe244Ala_uptake_in%,OCT1 Phe244Ala variant [5],23.542%
same,Mean_transport_ratio_Phe244Ala,OCT1 Phe244Ala variant [5]; [22],1.519
O=C(NCCNCC(O)COc1ccc(O)cc1)N1CCOCC1 (centres unmarked) [Xamoterol],Mean_transport_ratio_WT,OCT1 WT [2]; [21],34.864
same,Stereoselectivity of Phe244Ala variant compared to WT,OCT1 Phe244Ala variant [9],only one enantiomer of the racemic mixtures showed altered transport
same,Stereoselectivity of transport by the Phe244Ala variant,OCT1 Phe244Ala variant [9],lacked any stereoselective transport
same,Stereoselectivity of uptake via WT OCT1,OCT1 WT [10],stereoselective uptake
same,relative_Phe244Ala_uptake_in%,OCT1 Phe244Ala variant [5],54.211%
same,Mean_transport_ratio_Phe244Ala,OCT1 Phe244Ala variant [5]; [22],19.358
OCT1 WT (Homo sapiens) (protein) MPTVDDILEQVGESGWFQKQAFLILCLLSAAFAPICVGIVFLGFTPDHHCQSPGVAELSQRCGWSPAEELNYTVPGLGPAGEAFLGQCRRYEVDWNQSALSCVDPLASLATNRSHLPLGPCQDGWVYDTPGSSIVTEFNLVCADSWKLDLFQSCLNAGFLFGSLGVGYFADRFGRKLCLLGTVLVNAVSGVLMAFSPNYMSMLLFRLLQGLVSKGNWMAGYTLITEFVGSGSRRTVAIMYQMAFTVGLVALTGLAYALPHWRWLQLAVSLPTFLFLLYYWCVPESPRWLLSQKRNTEAIKIMDHIAQKNGKLPPADLKMLSLEEDVTEKLSPSFADLFRTPRLRKRTFILMYLWFTDSVLYQGLILHMGATSGNLYLDFLYSALVEIPGAFIALITIDRVGRIYPMAMSNLLAGAACLVMIFISPDLHWLNIIIMCVGRMGITIAIQMICLVNAELYPTFVRNLGVMVCSSLCDIGGIITPFIVFRLREVWQALPLILFAVLGLLAAGVTLLLPETKGVALPETMKDAENLGRKAKPKENTIYLKVQTSEPSGT,Km,[11],449 ± 438 µM
same,Vmax,[11],0.000453 µmol/min/mg
same,Vmax/Km,[11],1.01 µL/min/mg
same,Km,[12],1.26 ± 1.12 µM
same,Vmax,[12],0.000271 µmol/min/mg
same,Vmax/Km,[12],224 µL/min/mg
same,Km,[13],98.5 ± 87.8 µM
same,Vmax,[13],0.00213 µmol/min/mg
same,Vmax/Km,[13],21.6 µL/min/mg
same,Km,[14],413 ± 314 µM
same,Vmax,[14],0.00584 µmol/min/mg
same,Vmax/Km,[14],14.1 µL/min/mg
same,Km,[15],38.2 ± 14.3 µM
same,Vmax,[15],0.000185 µmol/min/mg
same,Vmax/Km,[15],4.84 µL/min/mg
same,Km,[16],64.7 ± 50.2 µM
same,Vmax,[16],0.00296 µmol/min/mg
same,Vmax/Km,[16],45.8 µL/min/mg
same,Km,[17],89.2 ± 85.2 µM
same,Km,[18],40.1 ± 57.7 µM
same,Vmax,[18],0.000122 µmol/min/mg
same,Vmax/Km,[18],3.03 µL/min/mg
same,Km,[19],69.3 ± 103 µM
same,Vmax,[19],3e-05 µmol/min/mg
same,Vmax/Km,[19],0.43 µL/min/mg
same,Km,[20],1161 ± 1029 µM
same,Vmax,[20],0.00872 µmol/min/mg
same,Vmax/Km,[20],7.51 µL/min/mg
